Key:
[1] = tested on: NCI-H2452 (NF2 wide-type); experiment: Inhibition of cell proliferation (CellTiter-Lumi); assay type: cell-based; conditions: Homo sapiens, 72 h + another 72 h treatment
NCI-H28 (NF2 wide-type) = experiment: Inhibition of cell proliferation (CellTiter-Lumi); assay type: cell-based; conditions: Homo sapiens, 72 h + another 72 h treatment
[2] = tested on: MSTO-211H (NF2 wide-type); experiment: Inhibition of cell proliferation (CellTiter-Lumi); assay type: cell-based; conditions: Homo sapiens, 72 h + another 72 h treatment
Experimental: NCI-H2052 (NF2 mutant), NCI-H226 (NF2 mutant), NCI-H2452 (NF2 wide-type), NCI-H28 (NF2 wide-type), and MSTO-211H (NF2 wide-type) cells were cultured in RPMI 1640 complete media.
The normally growing cells described above were digested with a trypsin cell-digesting solution, centrifuged, counted, and then plated in a 96-well plate at a density of 1000 cells per well. Administration was performed 24 h after the cell plating. Inhibitors at different concentration gradients were added at 10 µL per well, and three replicate wells were set for each concentration point. The starting concentration was 20 µM and diluted 8 times with a 4-fold gradient. A corresponding negative control group treated with 0.1% DMSO was also set up. After 72 h of drug treatment, the cell culture plate to be tested was taken out of the incubator. The culture medium in the 96-well plate was pipetted, and 190 µL of fresh RPMI 1640 complete medium was added. Another administration was performed, and the cells were cultured for another 72 h. The 96-well plate was taken out and allowed to equilibrate at room temperature for 10 min. The medium in the 96-well plate was pipetted, and 200 µL of CellTiter-Lumi™ luminescent cell viability detection solution (mixed with a medium in a ratio of 1:1) was added. After shaking for two minutes, the mixture was reacted at room temperature for 10 min. Then, 150 µL of liquid was pipetted from the transparent 96-well plate and transferred to a white 96-well plate for chemiluminescence reading. The background value was subtracted from the value for each well to calculate the cell survival rate. Survival rate (%) = […]. Sample is the chemiluminescence of the drug-treated group, and Vehicle is the […] of the DMSO control group. A sigmoidal dose-survival rate curve was plotted using a non-linear regression model in the GraphPad Prism 7.0 software, and the IC50 values or GI50 values were calculated.

[3] = target: T1, Cytochrome Oxidase P450 1A2 (Homo sapiens, UniProt P05177); experiment: Inhibition of cytochrome oxidase P450; assay type: in vitro ADME; conditions: liver microsomes
T1 construct: a biochemical reaction of prepared liver microsomes supplemented with a redox coenzyme; from tissue; host or cells: liver microsomes
T1 sequence (P05177 1-516): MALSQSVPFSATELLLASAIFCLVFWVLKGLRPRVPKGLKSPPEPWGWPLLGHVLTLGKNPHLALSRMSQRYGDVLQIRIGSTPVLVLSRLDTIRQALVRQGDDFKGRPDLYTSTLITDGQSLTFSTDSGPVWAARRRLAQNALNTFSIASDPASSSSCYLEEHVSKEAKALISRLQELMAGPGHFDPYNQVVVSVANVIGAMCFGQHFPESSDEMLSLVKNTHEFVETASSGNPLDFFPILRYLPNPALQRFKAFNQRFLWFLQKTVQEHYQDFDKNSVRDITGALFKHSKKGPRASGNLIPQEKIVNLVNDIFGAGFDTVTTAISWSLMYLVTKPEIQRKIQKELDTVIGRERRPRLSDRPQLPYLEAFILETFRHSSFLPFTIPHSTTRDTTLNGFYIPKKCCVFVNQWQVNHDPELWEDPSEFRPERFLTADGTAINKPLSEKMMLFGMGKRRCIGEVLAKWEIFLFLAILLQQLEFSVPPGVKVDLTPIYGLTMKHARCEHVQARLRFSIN
Experimental: Efficacy Experimental Example 5: Inhibition of Cytochrome Oxidase P450
100 mM K-Buffer: 9.5 mL of stock solution A was mixed with 40.5 mL of stock solution B, the total volume was adjusted to […] with ultrapure water, and the buffer was titrated to pH 7.4 with KOH or H3PO4.
The test substance powder was prepared into a stock solution at a certain concentration with DMSO or another organic solvent, which was then further diluted with a suitable organic solvent.
The liver microsomal in vitro incubation system for the CYP450 enzyme metabolism phenotype study was a biochemical reaction of prepared liver microsomes supplemented with a redox coenzyme and an enzyme-specific selective inhibitor under simulated physiological temperature and environment conditions.
The concentration of the parent drug or a metabolite thereof in the incubation solution was determined by LC-MS/MS.

MSTO-211H cells = experiment: Pharmacodynamic test, MSTO-211H subcutaneous xenograft; assay type: in vivo, nude mice (BALB/c nu/nu); conditions: MSTO-211H xenograft
Experimental: Healthy female nude mice (BALB/c nu/nu) aged 6-8 weeks were housed in an SPF environment in accordance with animal ethical guidelines. The well-growing 5M MSTO-211H cells were harvested through trypsin digestion, washed in phosphate-buffered saline (PBS), and then resuspended in PBS containing 50% matrigel (BD Biosciences).
Subcutaneous injection was then performed at the dorsolateral sites of the mice, and the tumor volume was measured once every three days thereafter. When the tumor volume reached around 150-200 mm^3, the mice were randomly assigned to different treatment groups. Any one of the compounds described herein was prepared accordingly and administered at an appropriate dose. Finally, the tumor growth in the nude mice was analyzed after 4 to 6 weeks based on the growth of the tumors.

Row | IC50 [1] | IC50 (NCI-H28 (NF2 wide-type)) | SMILES | IC50 [2] | IC50 [3] | also measured
1 | > 20 µM | > 5 µM | CP(C)(=O)c1ccc(Nc2ccc(C(F)(F)F)cc2)c(-c2ncccn2)c1 [Example 12] | > 20 µM |  | 
2 |  |  | CP(C)(=O)c1ccc2c(c1)c1ccccc1n2-c1ccc(C(F)(F)F)cc1 [Example 1] |  | > 10 µM | 
3 |  |  | CP(C)(=O)c1ccc2c(Oc3ccc(C(F)(F)F)cc3)cccc2c1 [Example 7] |  | > 10 µM | TGI (MSTO-211H cells; 25mpk QD): 25mpk QD TGI = 107.93%
4 | > 5 µM | > 1.25 µM | CP(C)(=O)c1ccc(Nc2ccc(C(F)(F)F)cc2)c(-c2ccccn2)c1 [Example 10] | > 1.25 µM |  | 
5 | > 20 µM | > 1.25 µM | CP(C)(=O)c1ccc2c(c1)c1cccnc1n2-c1ccc(C(F)(F)F)cc1 [Example 5] | > 5 µM |  | 
6 |  |  | Cn1cnc(-c2cc(P(C)(C)=O)cnc2Nc2ccc(C(F)(F)F)cc2)c1 [Example 8] |  | > 10 µM | TGI (MSTO-211H cells; 50mpk QD): 50mpk QD TGI = 104.28%
7 |  |  | Cn1cnc(-c2cc(P(C)(C)=O)ccc2Nc2ccc(C(F)(F)F)cc2)c1 [Example 14] |  | > 10 µM | TGI (MSTO-211H cells; 50mpk QD): 50mpk QD TGI = 100.43%; TGI (MSTO-211H cells; 150mpk QD): 150mpk QD TGI = 118.27%
8 |  |  | CP(C)(=O)c1cnc(Nc2ccc(C(F)(F)F)cc2)c(-c2cn3c(n2)CCC3)c1 [Example 22] |  | > 10 µM | TGI (MSTO-211H cells; 150mpk QD): 150mpk QD TGI = 102.62%

Source: patent publication EP4596561A1, “PHOSPHORUS-CONTAINING COMPOUND, PHARMACEUTICAL COMPOSITION AND USE THEREOF” (Suzhou Genhouse Bio Co., Ltd., priority 2022, dated 2024)
